The text below walks through data of US6624202B2, “Inhibitors of copper-containing amine oxidases” (priority 2000, dated 2003).

The target in series [1] is T1, Recombinant human VAP-1 SSAO (Homo sapiens, UniProt Q16853).
T1 sequence (Q16853 1-763): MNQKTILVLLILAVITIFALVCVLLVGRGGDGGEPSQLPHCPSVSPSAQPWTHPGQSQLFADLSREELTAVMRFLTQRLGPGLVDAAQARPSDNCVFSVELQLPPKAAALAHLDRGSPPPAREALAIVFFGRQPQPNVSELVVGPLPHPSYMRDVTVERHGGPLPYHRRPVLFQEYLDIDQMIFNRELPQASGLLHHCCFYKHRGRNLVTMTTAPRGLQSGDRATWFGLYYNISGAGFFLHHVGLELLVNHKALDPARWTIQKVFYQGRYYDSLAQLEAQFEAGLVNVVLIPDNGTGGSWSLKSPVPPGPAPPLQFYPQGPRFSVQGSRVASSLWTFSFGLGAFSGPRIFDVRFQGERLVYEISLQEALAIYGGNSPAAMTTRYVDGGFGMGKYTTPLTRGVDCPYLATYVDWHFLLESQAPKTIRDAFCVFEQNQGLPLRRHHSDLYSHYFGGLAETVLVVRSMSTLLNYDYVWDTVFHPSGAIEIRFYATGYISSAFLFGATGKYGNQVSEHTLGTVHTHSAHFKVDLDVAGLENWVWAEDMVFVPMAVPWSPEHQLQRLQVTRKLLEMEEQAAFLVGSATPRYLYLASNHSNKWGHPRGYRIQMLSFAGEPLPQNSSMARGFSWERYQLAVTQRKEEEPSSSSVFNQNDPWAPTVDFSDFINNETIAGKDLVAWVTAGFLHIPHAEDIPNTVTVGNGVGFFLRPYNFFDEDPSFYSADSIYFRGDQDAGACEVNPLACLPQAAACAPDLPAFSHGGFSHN
As to the kind of experiment: In vitro inhibition of VAP-1 SSAO activity (coupled colourimetric method). The conditions noted are these: for IC50: 1 mM benzylamine, 1 h at 37° C. Type of series: biochemical. The method, then: VAP-1 SSAO activity was measured using the coupled colourimetric method essentially as described for monoamine oxidase and related enzymes (Holt, A., et al., Anal. Biochem. 244:384-392 (1997)). Recombinant human VAP-1 SSAO expressed in Chinese Hamster Ovary (CHO) cells was used as a source of VAP-1 SSAO for activity measurements. […] These cells and their culture have previously been described (Smith, D. J., et al., J. Exp. Med. 188:17-27 (1998)). A cell lysate was prepared by suspending approximately 3.6×10^8 cells in 25 ml lysis buffer (150 mM NaCl, 10 mM Tris-Base pH 7.2, 1.5 mM MgCl2, 1% NP40) and incubating at 4° C. overnight on a rotating table. The lysate was clarified by centrifugation at 18000 g for 5 min at room temperature and the supernatant used directly in the assay. The VAP-1 SSAO assay was performed in 96 well microtitre plates as follows. To each well was added a predetermined amount of inhibitor if required. […] Controls lacked inhibitor. The inhibitor was in a total volume of 20 μl in water. The following reagents were then added. 0.2 M potassium phosphate buffer pH 7.6 to a total reaction volume of 200 μl, 45 μl of freshly made chromogenic solution containing 1 mM 2,4-dichlorophenol, 500 μM 4-aminoantipyrine and 4 U/ml horseradish peroxidase and an amount of CHO cell lysate containing VAP-1 SSAO that caused a change of 0.6 A490 per h. […] The plates were incubated for 30 min at 37° C. and the background absorbance measured at 490 nm using a Wallac Victor II multilabel counter. To initiate the enzyme reaction 20 μl 10 mM benzylamine (final concentration=1 mM) was added and the plate incubated for 1 h at 37° C. The increase in absorbance, reflecting VAP-1 SSAO activity, was measured at 490 nm. Inhibition was presented as percent inhibition compared to control after correcting for background absorbance and IC50 values calculated using GraphPad Prism.

For a further series, the system named is Total rat MAO. In words: Total rat MAO activity (rat liver mitochondrial preparation, colourimetric). Type of series: biochemical. The conditions noted are these: rat liver mitochondria; 0.5 mM tyramine; 1 h at 37° C.; read-out: Total MAO inhibitory activity IC50. The method, then:
Rat MAO was prepared from rat liver by rinsing the 1 g liver sample several times in 14 ml KCl-EDTA-solution to remove all blood. Then 1 g liver sample was homogenised in 4 ml ice-cold potassium phosphate buffer (0.1 M, pH 7.4) with an Ultra-Turrax homogeniser (setting 11 000 rpm, 4×10 s). After centrifugation at 500 g for 10 min at 4° C. the supernatant was carefully withdrawn and was centrifuged at 12 300 g for 15 min at 4° C. The supernatant was discharged and sedimented mitochondria were resuspended in 4 ml fresh phosphate buffer and centrifuged as previously. The mitochondria were suspended in 4 ml phosphate buffer and homogenized with an Ultra-Turrax homogeniser (setting 11 000 rpm, 2×10 s). Mitochondrial preparate was aliquoted and stored at −70° C. Total MAO activity was measured in a similar way as for VAP-1 SSAO except that 2,4-dichlorophenol was replaced by 1 mM vanillic acid. To each well was added a predetermined amount of inhibitor if required. The amount of inhibitor varied in each assay but was generally at a final concentration of between 10 nM and 800 μM. Controls lacked inhibitor. The inhibitor was in a total volume of 20 μl in water. The following reagents were then added. 0.2 M potassium phosphate buffer pH 7.6 for a total reaction volume of 300 μl, 50 μl of fleshly made chromogenic solution (as above) and 50 μl of MAO preparation. The plates were incubated for 30 min at 37° C. and the background absorbance measured at 490 nm using a Wallac Victor II multilabel counter. To initiate the enzyme reaction 20 μl of 5 mM tyramine (final concentration 0.5 mM) was added and the plate incubated for 1 h at 37° C. The increase in absorbance, reflecting MAO activity, was measured at […]. Inhibition was presented as percent inhibition compared to control after correcting for background absorbance and IC50 values calculated using GraphPad Prism. Clorgyline and pargyline (inhibitors of MAO-A and -B respectively) at 0.5 μM were added to some wells as positive controls for MAO inhibition.

Setting [2] is: lysate of CHO cells expressing recombinant human VAP-1 SSAO, read-out: VAP-1 SSAO inhibitory activity IC50.
The mark [3] stands for this setting: ratio of total rat MAO IC50 to human VAP-1 SSAO IC50.
[4] abbreviates: VAP-1 SSAO inhibitory activity IC50, lysate of CHO cells expressing recombinant human VAP-1 SSAO.

Structures can show the parent of a compound that is named as a salt. Where two headings read alike, the source gives them in different places.

Usually IC50 stands for the concentration that gives 50% inhibition. For the compound “2-(1-methylhydrazino)-1-phenylethanol hydrogenmaleate [Compound 6]”, the results for the IC50 (in series [1] (setting [2]); in the series on Total rat MAO) were 65 nM and 8900 nM, respectively. Also, the “Selectivity for VAP-1 SSAO over MAO” value in series [1] (setting [3]) was found to be 137.

The term melting point denotes the temperature, or range, at which the solid turns liquid. In turn, `C[C@@H]([C@H](O)c1ccccc1)N(C)N` (as salt: maleate) [Compound 1, (1R,2S)-2-(1-Methylhydrazino)-1-phenyl-1-propanol hydrogenmaleate] returned a melting point of 111 to 113 °C.

For `NN(Cc1ccccc1)[C@@H]1CCCC[C@H]1O` (racemic) [Compound 42], the IC50 in series [1] (setting [2]) came to 3700 nM; in the series on Total rat MAO, 106000 nM. Also, the “Selectivity for VAP-1 SSAO over MAO” value in series [1] (setting [3]) turned out to be 29.

`C[C@H](C(O)c1ccccc1)N(C)N` (single isomer, unassigned) [Compound 48] returned a melting point of 112 to 114 °C. In series [1] (setting [4]), the 50% inhibitory concentration (IC50) is 280 nM. In series [1] (setting [3]), the “Selectivity for VAP-1 SSAO over MAO” value came out at 110.

In the case of `CN(N)CC(O)c1ccc(Cl)cc1` (racemic) [Compound 30], the “Selectivity for VAP-1 SSAO over MAO” value in series [1] amounted to 68. Further, the IC50 is 310 nM in series [1] (setting [2]) and 21000 nM in the series with Total rat MAO.

Take `C[C@@H]([C@H](O)c1ccccc1)N(C)N` (racemic) [Compound 10]: the IC50 in series [1] (setting [4]) amounted to 300 nM; with Total rat MAO, 36000 nM. Also, the “Selectivity for VAP-1 SSAO over MAO” value in series [1] (setting [3]) is listed as 120.

`NNCC(O)c1ccccc1` (single isomer, unassigned) [Compound 49]: the melting point lay within 99 to 104 °C. For the same compound, in series [1] (setting [2]), the IC50 worked out at 140 nM. In series [1] (setting [3]), the “Selectivity for VAP-1 SSAO over MAO” value is listed as 70.

Consider `COc1cccc(C(O)CN(C)N)c1` (racemic) [Compound 34], for which the “Selectivity for VAP-1 SSAO over MAO” value in series [1] worked out at 157. The IC50 is 280 nM in series [1] (setting [2]) and 44000 nM with Total rat MAO.

Regarding `CC(C(O)c1ccccc1)N(C)N` (racemic) [Compound 11], the results for the 50% inhibitory concentration (IC50) (in series [1] (setting [4]); in the series on Total rat MAO) were 170 nM and 16000 nM, respectively. The “Selectivity for VAP-1 SSAO over MAO” value in series [1] (setting [3]) was found to be 94.

Regarding `COc1cc2c(cc1OC)C(CO)N(N)CC2` (centres unmarked) [Compound 8, 2-Amino-6,7-dimethoxy-1,2,3,4-tetrahydroisoquinoline-1-methanol hydrochloride], the IC50 in series [1] (setting [2]) is over 10000 nM. In series [1] (setting [3]), the “Selectivity for VAP-1 SSAO over MAO” value was under 8.

With `NNCC(O)c1ccccc1` (single isomer, unassigned) [Compound 50], the melting point is 98 to 103 °C. In addition, the IC50 in series [1] (setting [2]) came out at 35 nM. Further, the “Selectivity for VAP-1 SSAO over MAO” value in series [1] (setting [3]) was 283.

For the compound `COc1ccc(C(CN(C)N)OC)cc1` (racemic) [Compound 37], in series [1] (setting [2]), the IC50 was 420 nM. For the same compound, the “Selectivity for VAP-1 SSAO over MAO” value in series [1] (setting [3]) is listed as 105.

Take `CC(C)CN(N)CC(O)c1ccccc1` (racemic) [Compound 24]: the IC50 in series [1] (setting [2]) worked out at 350 nM. The “Selectivity for VAP-1 SSAO over MAO” value in series [1] (setting [3]) is given as 32.

Take `COc1cccc(C(CN(C)N)OC)c1` (centres unmarked) [Compound 7, 1-[2-methoxy-2-(m-methoxyphenyl)ethyl]-1-methylhydrazine Hydrogenfumarate]: the IC50 in series [1] (setting [2]) was 410 nM. Besides, the “Selectivity for VAP-1 SSAO over MAO” value in series [1] (setting [3]) stood at 107.

`CCC[C@@H]([C@H](O)c1ccccc1)N(C)N` (racemic) [Compound 23]: the IC50 in series [1] (setting [2]) amounted to 260 nM. For the same compound, the “Selectivity for VAP-1 SSAO over MAO” value in series [1] (setting [3]) is on record as 108.

As to `COc1cccc(C(O)CNN)c1` (racemic) [Compound 33], the half-maximal inhibitory concentration (IC50) in series [1] (setting [2]) stood at 52 nM; with Total rat MAO, 9100 nM. Moreover, the “Selectivity for VAP-1 SSAO over MAO” value in series [1] (setting [3]) is given as 175.

Consider `NN(Cc1ccccc1)C(CO)Cc1ccccc1` (racemic) [Compound 38], for which, in series [1] (setting [2]), the IC50 is over 50000 nM. Further, the “Selectivity for VAP-1 SSAO over MAO” value in series [1] (setting [3]) is recorded as “≈10”.

Regarding `COc1cc2c(cc1OC)CN(N)C(CO)C2` (racemic) [Compound 47], in series [1] (setting [2]), the IC50 was over 10000 nM. In series [1] (setting [3]), the “Selectivity for VAP-1 SSAO over MAO” value is recorded as under 150.

Consider `C[C@@H]([C@H](O)c1ccccc1)N(N)CC1CC1` (racemic) [Compound 15], for which the IC50 in series [1] (setting [2]) turned out to be 1380 nM. For the same compound, the “Selectivity for VAP-1 SSAO over MAO” value in series [1] (setting [3]) stood at 7.
